Measured values from patent publication US20060018978A1, “Botanical compositions having hypoglycemic, hypolipidemic and antimicrobial activities for maintaining good health in normal person and diabetic patient” (priority 2004, published 2006).

Experiments:
[1] = test system: Salmonella typhimurium ATCC 14028; experiment: Agar Diffusion Test, S. typhimurium; format: cell-based; conditions: mean ± S.E.M
From the text: (§1) The dried plant extract is ground to fine powder and sieved to obtain uniform powder size and used for pharmaceutical preparation. […] (1991) Antibiotics in Laboratory Medicine, 3rd ed. The pathogenic microbes inhibited by the crude water extract of M. coromandelianum are Staphylococcus aureus, and Salmonella typhimurium. […] [table]

[2] = test system: Klebsiella pneumoniae ATCC 10031; experiment: Agar Diffusion Test, K. pneumoniae; format: cell-based; conditions: mean ± S.E.M
From the text: as §1

[3] = test system: Staphylococcus aureus ATCC 6538P; experiment: Agar Diffusion Test, S. aureus; format: cell-based; conditions: mean ± S.E.M
From the text: as §1

[4] = test system: Pseudomonas aeruginosa ATCC 9721; experiment: Agar Diffusion Test, Ps. aeruginosa; format: cell-based; conditions: mean ± S.E.M
From the text: as §1

[5] = test system: Escherichia coli ATCC 25922; experiment: Agar Diffusion Test, E. coli; format: cell-based; conditions: mean ± S.E.M
From the text: as §1

[6] = test system: streptozotocin-induced diabetic rats; experiment: Biochemical analysis of serum in diabetic rats at day 14 after daily feeding; format: in vivo, rat; conditions: day 14, Standard: injected 5 IU/Kg/day, mean ± S.E.M.

Substance	Diameter of inhibition zone ([1]; 10 μg/ml)	Diameter of inhibition zone ([1]; 20 μg/ml)	Diameter of inhibition zone ([2]; 10 μg/ml)	Diameter of inhibition zone ([2]; 20 μg/ml)	Diameter of inhibition zone ([3]; 10 μg/ml)	Diameter of inhibition zone ([3]; 20 μg/ml)	Diameter of inhibition zone ([4]; 10 μg/ml)	Diameter of inhibition zone ([4]; 20 μg/ml)	Diameter of inhibition zone ([5]; 10 μg/ml)	Diameter of inhibition zone ([5]; 20 μg/ml)	Cholesterol [6]	Glucose [6]	Triglycerides [6]
Gentamicin	14.28 ± 0.07 mm	15.88 ± 0.141 mm	16.9 ± 0.00 mm	26.57 ± 0.28 mm	10.00 ± 0.00 mm	12.77 ± 0.14 mm	8.1 ± 0.00 mm	12.8 ± 0.14 mm	1.56 ± 0.07 mm	3.78 ± 0.07 mm			
Insulin											225.96 ± 5.51 mg %	409.85 ± 12.52 mg %	388.10 ± 61.85 mg %
